Key:
A549 cancer cells = test: Senescence induction (SA-β-Gal activity, morphology) of bleomycin-treated cells; format: cell-based; conditions: 50 ug/ml for 72 hours; stained 7 days post-treatment
Description: (§1) FIG. 1: Senescence-associated beta-galactosidase (SA-β-Gal) activity of bleomycin-treated cells. A549 cancer cells (panel A) and primary human WI-38 fibroblasts (panel B) were treated for 72 hours with 50 ug/ml or 15 ug/ml of bleomycin, respectively. Cells were fixed and stained 7 days post-bleomycin treatment. Non-treated cultures, confluent at the time of staining, were used as controls.

[1] = system: primary human WI-38 fibroblasts; test: as above; format: cell-based; conditions: 15 ug/ml for 72 hours; stained 7 days post-treatment
Description: as §1

bleomycin
cellular morphology (A549 cancer cells): Enlarged cellular morphology | cellular morphology [1]: Enlarged cellular morphology
